Reference: ChEMBL document CHEMBL1201862, “PubChem BioAssay data set” (2004)
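In this assay, cells in 96-well plates receive the compound at five concentrations for 48 hours. Endpoints are linearly interpolated between the surrounding concentrations. GI50 is the concentration that inhibits growth by half.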 The source made the active and inactive calls. Rule as the data show it: active = GI50 up to about 1.1 µM and inactive = higher.

Tests used:
Experiment in all cases: DTP human tumour cell line panel, 48 h
NCI-H460 = test system: NCI-H460
HCT-116 = test system: HCT-116
TK-10 = test system: TK-10
HOP-18 = test system: HOP-18
SF-268 = test system: SF-268
NCI-H522 = test system: NCI-H522
HL-60 = test system: HL-60
SW-620 = test system: SW-620
XF498 = test system: XF498
UO-31 = test system: UO-31
MOLT-4 = test system: MOLT-4
HOP-92 = test system: HOP-92
CCRF-CEM = test system: CCRF-CEM
NCI-H226 = test system: NCI-H226
A549 = test system: A549
LOX IMVI = test system: LOX IMVI
EKVX = test system: EKVX
M19-MEL = test system: M19-MEL
K562 = test system: K562
A498 = test system: A498
SK-MEL-2 = test system: SK-MEL-2
SF-539 = test system: SF-539
NCI-H23 = test system: NCI-H23
DLD-1 = test system: DLD-1
IGROV-1 = test system: IGROV-1
HOP-62 = test system: HOP-62
ACHN = test system: ACHN
RPMI-8226 = test system: RPMI-8226
Malme-3M = test system: Malme-3M
786-0 = test system: 786-0
SK-MEL-28 = test system: SK-MEL-28
SK-MEL-5 = test system: SK-MEL-5
KM-20L2 = test system: KM-20L2
UACC-62 = test system: UACC-62
OVCAR-8 = test system: OVCAR-8
SF-295 = test system: SF-295
DMS-114 = test system: DMS-114
SNB-75 = test system: SNB-75
RXF 393 = test system: RXF 393
HCC 2998 = test system: HCC 2998
OVCAR-5 = test system: OVCAR-5
M14 = test system: M14
SK-OV-3 = test system: SK-OV-3
KM12 = test system: KM12
SN12C = test system: SN12C
OVCAR-3 = test system: OVCAR-3
HCT-15 = test system: HCT-15
COLO 205 = test system: COLO 205
HT-29 = test system: HT-29
SNB-19 = test system: SNB-19
U-251 = test system: U-251
UACC-257 = test system: UACC-257
SNB-78 = test system: SNB-78
DMS-273 = test system: DMS-273
NCI/ADR-RES = test system: NCI/ADR-RES
MCF7 = test system: MCF7
OVCAR-4 = test system: OVCAR-4
CAKI-1 = test system: CAKI-1
LXFL 529 = test system: LXFL 529

## O=C1C(c2ccccc2)=[N+]([O-])c2cc([N+](=O)[O-])ccc21
NCI-H460
  GI50: 24.7 µM (inactive)
HCT-116
  GI50: 23.8 µM (inactive)
TK-10
  GI50: 20.1 µM (inactive)
HOP-18
  GI50: 88.1 µM (inactive)
SF-268
  GI50: 19.7 µM (inactive)
NCI-H522
  GI50: 15.3 µM (inactive)
HL-60
  GI50: 7.52 µM (inactive)
SW-620
  GI50: 60.3 µM (inactive)
XF498
  GI50: 24 µM (inactive)
UO-31
  GI50: 52.1 µM (inactive)
MOLT-4
  GI50: 18.7 µM (inactive)
HOP-92
  GI50: 30.5 µM (inactive)
CCRF-CEM
  GI50: 8.93 µM (inactive)
NCI-H226
  GI50: 73.3 µM (inactive)
A549
  GI50: 32 µM (inactive)
LOX IMVI
  GI50: 14.3 µM (inactive)
EKVX
  GI50: 17.4 µM (inactive)
M19-MEL
  GI50: 17.7 µM (inactive)
K562
  GI50: 22.8 µM (inactive)
A498
  GI50: 27.6 µM (inactive)
SK-MEL-2
  GI50: > 100 µM (inactive)
SF-539
  GI50: 25.5 µM (inactive)
NCI-H23
  GI50: 43.6 µM (inactive)
DLD-1
  GI50: 21.6 µM (inactive)
IGROV-1
  GI50: 22.4 µM (inactive)
HOP-62
  GI50: > 100 µM (inactive)
ACHN
  GI50: 24.9 µM (inactive)
RPMI-8226
  GI50: 22.8 µM (inactive)
Malme-3M
  GI50: 20.6 µM (inactive)
786-0
  GI50: 26.3 µM (inactive)
SK-MEL-28
  GI50: 22.6 µM (inactive)
SK-MEL-5
  GI50: 19.3 µM (inactive)
KM-20L2
  GI50: 23.5 µM (inactive)
UACC-62
  GI50: 13.1 µM (inactive)
OVCAR-8
  GI50: 16.4 µM (inactive)
SF-295
  GI50: 48.2 µM (inactive)
DMS-114
  GI50: 14.3 µM (inactive)
SNB-75
  GI50: 41.9 µM (inactive)
RXF 393
  GI50: 15.9 µM (inactive)
HCC 2998
  GI50: 27.5 µM (inactive)
OVCAR-5
  GI50: 69.8 µM (inactive)
M14
  GI50: > 10 µM (inactive)
SK-OV-3
  GI50: > 100 µM (inactive)
KM12
  GI50: 20.5 µM (inactive)
SN12C
  GI50: 25.6 µM (inactive)
OVCAR-3
  GI50: 18.2 µM (inactive)
HCT-15
  GI50: 21.4 µM
COLO 205
  GI50: 21.5 µM (inactive)
HT-29
  GI50: 21.9 µM (inactive)
SNB-19
  GI50: 57 µM (inactive)
U-251
  GI50: 27.7 µM (inactive)
UACC-257
  GI50: 18.5 µM (inactive)

## C=C1C(=O)O[C@H]2C1[C@H](OC(=O)/C(C)=C\COC(C)=O)C[C@]1(CO1)[C@@H]1[C@H](O)[C@H]3O[C@@]3(C)[C@@H]12 (some centres not stated)
NCI-H460
  GI50: 33.4 µM (inactive)
HCT-116
  GI50: 13.1 µM (inactive)
HOP-18
  GI50: 20 µM (inactive)
SF-268
  GI50: 21.1 µM (inactive)
NCI-H522
  GI50: 8.87 µM (inactive)
HL-60
  GI50: 13.9 µM (inactive)
SW-620
  GI50: 13.2 µM (inactive)
XF498
  GI50: 19.3 µM (inactive)
UO-31
  GI50: > 88.7 µM (inactive)
MOLT-4
  GI50: 19.5 µM (inactive)
HOP-92
  GI50: 15.2 µM (inactive)
CCRF-CEM
  GI50: 10.5 µM (inactive)
NCI-H226
  GI50: 26.8 µM (inactive)
A549
  GI50: 49.2 µM (inactive)
LOX IMVI
  GI50: 16.7 µM (inactive)
EKVX
  GI50: 26.3 µM (inactive)
M19-MEL
  GI50: 15.7 µM (inactive)
K562
  GI50: 15.2 µM (inactive)
SNB-78
  GI50: 25.9 µM (inactive)
DMS-273
  GI50: 26.3 µM (inactive)
A498
  GI50: 61.5 µM (inactive)
SK-MEL-2
  GI50: 20.7 µM (inactive)
SF-539
  GI50: 27 µM (inactive)
NCI-H23
  GI50: 14.3 µM (inactive)
DLD-1
  GI50: 12.2 µM (inactive)
IGROV-1
  GI50: 24 µM (inactive)
HOP-62
  GI50: > 100 µM (inactive)
RPMI-8226
  GI50: 13.3 µM (inactive)
Malme-3M
  GI50: 20.7 µM (inactive)
NCI/ADR-RES
  GI50: 21.4 µM (inactive)
SK-MEL-28
  GI50: 15.5 µM (inactive)
SK-MEL-5
  GI50: 18.6 µM (inactive)
KM-20L2
  GI50: 30.5 µM (inactive)
UACC-62
  GI50: 15.8 µM (inactive)
OVCAR-8
  GI50: 24.8 µM (inactive)
SF-295
  GI50: > 61 µM (inactive)
DMS-114
  GI50: 19.4 µM (inactive)
MCF7
  GI50: 11.5 µM (inactive)
SNB-75
  GI50: 37 µM (inactive)
RXF 393
  GI50: 16.8 µM (inactive)
OVCAR-4
  GI50: 27 µM (inactive)
HCC 2998
  GI50: 15 µM (inactive)
CAKI-1
  GI50: 14.3 µM (inactive)
OVCAR-5
  GI50: > 71.6 µM (inactive)
SK-OV-3
  GI50: > 67 µM (inactive)
KM12
  GI50: 14.8 µM (inactive)
SN12C
  GI50: 22.3 µM (inactive)
OVCAR-3
  GI50: 18.3 µM (inactive)
HCT-15
  GI50: 18.5 µM
COLO 205
  GI50: 8.73 µM (inactive)
HT-29
  GI50: 19.1 µM (inactive)
SNB-19
  GI50: > 100 µM (inactive)
U-251
  GI50: 21.7 µM (inactive)
UACC-257
  GI50: 16.8 µM (inactive)

## CC(=O)NC1=C(NC(C)(C)C)C(=O)c2ccccc2C1=O
NCI-H460
  GI50: 19.2 µM (inactive)
HCT-116
  GI50: 28.7 µM (inactive)
TK-10
  GI50: 19.3 µM (inactive)
HOP-18
  GI50: 14.8 µM (inactive)
SF-268
  GI50: 26.9 µM (inactive)
HL-60
  GI50: 2.23 µM (inactive)
SW-620
  GI50: 14.1 µM (inactive)
XF498
  GI50: 11.1 µM (inactive)
UO-31
  GI50: 18.2 µM (inactive)
MOLT-4
  GI50: 6.43 µM (inactive)
HOP-92
  GI50: 19.1 µM (inactive)
CCRF-CEM
  GI50: 2.35 µM (inactive)
NCI-H226
  GI50: 14.5 µM (inactive)
A549
  GI50: 48.1 µM (inactive)
LOX IMVI
  GI50: 16.7 µM (inactive)
EKVX
  GI50: 28.2 µM (inactive)
M19-MEL
  GI50: 15.4 µM (inactive)
K562
  GI50: 7.19 µM (inactive)
SNB-78
  GI50: 31 µM (inactive)
DMS-273
  GI50: 26.1 µM (inactive)
A498
  GI50: 23.1 µM (inactive)
SK-MEL-2
  GI50: 20.6 µM (inactive)
SF-539
  GI50: 15.8 µM (inactive)
NCI-H23
  GI50: 18.7 µM (inactive)
DLD-1
  GI50: 15.9 µM (inactive)
IGROV-1
  GI50: 30.2 µM (inactive)
HOP-62
  GI50: 49.4 µM (inactive)
ACHN
  GI50: 86.1 µM (inactive)
RPMI-8226
  GI50: 11.7 µM (inactive)
Malme-3M
  GI50: 19.5 µM (inactive)
786-0
  GI50: 3.4 µM (inactive)
LXFL 529
  GI50: 15.2 µM (inactive)
SK-MEL-28
  GI50: 25.4 µM (inactive)
SK-MEL-5
  GI50: 18.2 µM (inactive)
KM-20L2
  GI50: 18.7 µM (inactive)
UACC-62
  GI50: 13.7 µM (inactive)
OVCAR-8
  GI50: 20.3 µM (inactive)
SF-295
  GI50: 42.7 µM (inactive)
DMS-114
  GI50: 20.6 µM (inactive)
SNB-75
  GI50: 13.6 µM (inactive)
RXF 393
  GI50: 17.9 µM (inactive)
OVCAR-4
  GI50: 20.1 µM (inactive)
HCC 2998
  GI50: > 100 µM (inactive)
CAKI-1
  GI50: 16.1 µM (inactive)
OVCAR-5
  GI50: 48.1 µM (inactive)
M14
  GI50: 17.1 µM (inactive)
SK-OV-3
  GI50: 54 µM (inactive)
KM12
  GI50: 30.3 µM (inactive)
SN12C
  GI50: 18.2 µM (inactive)
OVCAR-3
  GI50: 15.6 µM (inactive)
HCT-15
  GI50: 17.3 µM
COLO 205
  GI50: 83.4 µM (inactive)
HT-29
  GI50: 23.2 µM (inactive)
SNB-19
  GI50: 43.2 µM (inactive)
U-251
  GI50: 37 µM (inactive)
UACC-257
  GI50: 15.9 µM (inactive)
